Measured values published in DBAASP.
Values after ≈ are worked out from the molar mass of the structure shown. Each block holds one compound with its values, some of them ahead of it.

What was measured:
Test in all cases: ≥ marks a high value that may be exact or a test limit, other limits are often not marked, values filed in µg/mL are converted to µM
[1] = system: Staphylococcus aureus ATCC 25923
[2] = system: Enterococcus casseliflavus ATCC 700327
[3] = system: Klebsiella pneumoniae ATCC 13883
[4] = system: Enterococcus faecalis ATCC 29212
[5] = system: Staphylococcus epidermidis ATCC 12228
[6] = system: Escherichia coli ATCC 25922
Klebsiella pneumoniae = system: Klebsiella pneumoniae
[7] = system: Pseudomonas aeruginosa ATCC 27853
[8] = system: Staphylococcus aureus SAP 0017
[9] = system: Pseudomonas aeruginosa H103
[10] = system: Salmonella typhimurium C610
Escherichia coli O111:B4 = system: Escherichia coli O111:B4
[11] = system: Staphylococcus aureus K147
[12] = system: Staphylococcus epidermidis
Bacillus subtilis = system: Bacillus subtilis
Enterococcus faecalis = system: Enterococcus faecalis
[13] = system: Micrococcus luteus NBRC 3333
[14] = system: Aspergillus oryzae NBRC 100959
[15] = system: Escherichia coli NBRC 3972
[16] = system: Staphylococcus epidermidis NBRC 12993
[17] = system: Candida viswanathii NBRC 10321
Corynebacterium xerosis = system: Corynebacterium xerosis
Escherichia coli UB1005 = system: Escherichia coli UB1005
[18] = system: Pseudomonas aeruginosa K799
[19] = system: Staphylococcus epidermidis C621
Streptococcus mitis = system: Streptococcus mitis
[20] = system: Streptococcus pneumoniae ATCC 49619
[21] = system: Streptococcus pyogenes ATCC 19615
[22] = system: Salmonella enterica subsp. enterica serovar Typhimurium ATCC 14028s
Listeria monocytogenes = system: Listeria monocytogenes

MIC [1]: 4 µM (≈ 7.66 µg/mL)
MIC [2]: 16 µM (≈ 30.6 µg/mL)
MIC [3]: 4 µM (≈ 7.66 µg/mL)
MIC [4]: 8 µM (≈ 15.3 µg/mL)
MIC [5]: 2 µM (≈ 3.83 µg/mL)
MIC [6]: 16 µM (≈ 30.6 µg/mL)
SMILES: CC[C@H](C)[C@H](NC(=O)[C@@H](N)Cc1ccccc1)C(=O)NCC(=O)N[C@H](C(=O)N[C@@H](CC(C)C)C(=O)N[C@H](C(=O)N1CCC[C@H]1C(=O)N[C@@H](CC(C)C)C(=O)N[C@@H](C)C(=O)N[C@@H](CC(C)C)C(=O)NCC(=O)N[C@@H](C)C(=O)N[C@@H](CC(C)C)C(=O)N[C@H](C(=O)N[C@@H](CCCCN)C(=O)N[C@@H](CC(C)C)C(=O)N[C@@H](Cc1ccccc1)C(=O)N[C@@H](CCCCN)C(N)=O)[C@@H](C)O)[C@@H](C)CC)[C@@H](C)O [FIGTLIPLALGALTKLFK]

MIC [1]: 8 µM (≈ 24.1 µg/mL)
MIC [2]: 4 µM (≈ 12 µg/mL)
MIC (Klebsiella pneumoniae): 16 µM (≈ 48.1 µg/mL)
MIC [3]: 8 µM (≈ 24.1 µg/mL)
MIC [4]: 8 µM (≈ 24.1 µg/mL)
MIC [7]: 32 µM (≈ 96.2 µg/mL)
MIC [5]: 4 µM (≈ 12 µg/mL)
MIC [6]: 8 µM (≈ 24.1 µg/mL)
SMILES: CC[C@H](C)[C@H](NC(=O)[C@H](C)NC(=O)CNC(=O)[C@H](CC(C)C)NC(=O)[C@@H](N)Cc1ccccc1)C(=O)N[C@@H](CC(C)C)C(=O)N[C@@H](CCCCN)C(=O)N[C@H](C(=O)NCC(=O)N[C@@H](Cc1cnc[nH]1)C(=O)N[C@@H](C)C(=O)N[C@@H](CC(C)C)C(=O)N[C@@H](C)C(=O)N[C@@H](CCCCN)C(=O)N[C@H](C(=O)N[C@H](C(=O)N[C@@H](CC(C)C)C(=O)N1CCC[C@H]1C(=O)N[C@@H](CCSC)C(=O)N[C@H](C(=O)N[C@H](C(=O)N[C@@H](CC(N)=O)C(=O)N[C@@H](C)C(=O)N[C@@H](Cc1ccccc1)C(=O)N[C@@H](CCCCN)C(=O)N1CCC[C@H]1C(=O)N[C@@H](CCCCN)C(=O)N[C@@H](CCC(N)=O)C(=O)O)[C@@H](C)O)C(C)C)C(C)C)[C@@H](C)O)[C@@H](C)CC [FLGAILKIGHALAKTVLPMVTNAFKPKQ]

MIC (Corynebacterium xerosis): 1.26 µM (≈ 2 µg/mL)
MIC (Escherichia coli UB1005): 10.1 µM (≈ 16 µg/mL)
MIC [1]: > 40.4 µM
MIC [18]: 20.2 µM (≈ 32 µg/mL)
MIC [19]: 10.1 µM (≈ 16 µg/mL)
MIC (Streptococcus mitis): 1.26 µM (≈ 2 µg/mL)
MIC [20]: ≥ 40.4 µM
MIC [4]: 20.2 µM (≈ 32 µg/mL)
MIC [21]: 20.2 µM (≈ 32 µg/mL)
MIC [22]: ≥ 40.4 µM
MIC (Listeria monocytogenes): 2.53 µM (≈ 4 µg/mL)
SMILES: CC[C@H](C)[C@H](NC(=O)[C@H](CCCN=C(N)N)NC(=O)[C@H](CS)NC(=O)[C@H](CC(C)C)NC(=O)[C@@H](N)CCCN=C(N)N)C(=O)N[C@H](C(=O)N1CCC[C@H]1C(=O)N[C@H](C(=O)N[C@H](C(=O)N[C@@H](CCCN=C(N)N)C(=O)N[C@H](C(=O)N[C@@H](CS)C(=O)N[C@@H](CCCN=C(N)N)C(=O)O)C(C)C)[C@@H](C)CC)C(C)C)C(C)C [RLCRIVPVIRVCR]

MIC (Corynebacterium xerosis): 0.34 µM (≈ 0.5 µg/mL)
MIC (Escherichia coli UB1005): 2.72 µM (≈ 4 µg/mL)
MIC [1]: 10.9 µM (≈ 16 µg/mL)
MIC [18]: 10.9 µM (≈ 16 µg/mL)
MIC [19]: 1.36 µM (≈ 2 µg/mL)
MIC (Streptococcus mitis): 0.34 µM (≈ 0.5 µg/mL)
MIC [20]: 5.44 µM (≈ 7.99 µg/mL)
MIC [4]: 10.9 µM (≈ 16 µg/mL)
MIC [21]: 5.44 µM (≈ 7.99 µg/mL)
MIC [22]: ≥ 43.5 µM
MIC (Listeria monocytogenes): 0.34 µM (≈ 0.5 µg/mL)
SMILES: CC[C@H](C)[C@H](NC(=O)[C@H](CCCN=C(N)N)NC(=O)[C@H](CO)NC(=O)[C@H](CC(C)C)NC(=O)[C@@H](N)CCCN=C(N)N)C(=O)N[C@H](C(=O)N[C@H](C(=O)N[C@H](C(=O)N[C@@H](CCCN=C(N)N)C(=O)N[C@H](C(=O)N[C@@H](CS)C(=O)N[C@@H](CCCN=C(N)N)C(N)=O)C(C)C)[C@@H](C)CC)C(C)C)C(C)C [RLSRIVVIRVCR]

Continued, compound first:

SMILES: CC[C@H](C)[C@H](NC(=O)[C@H](CC(C)C)NC(=O)[C@H](C)NC(=O)[C@@H]1CCCN1C(=O)[C@H](CC(C)C)NC(=O)CNC(=O)[C@@H](NC(=O)[C@@H](NC(=O)[C@H](CC(C)C)NC(=O)[C@@H](NC(=O)[C@@H](NC(=O)[C@H](CC(C)C)NC(=O)[C@@H](NC(=O)[C@H](C)NC(=O)CNC(=O)[C@@H](NC(=O)CNC(=O)[C@H](CCCCN)NC(=O)[C@H](CCCCN)NC(=O)[C@H](CCCCN)NC(=O)[C@H](Cc1ccccc1)NC(=O)[C@H](CC(C)C)NC(=O)[C@H](CCCCN)NC(=O)[C@H](Cc1c[nH]c2ccccc12)NC(=O)[C@@H](N)CCCCN)[C@@H](C)O)C(C)C)[C@@H](C)O)C(C)C)[C@@H](C)O)[C@@H](C)O)C(=O)N[C@@H](CO)C(=O)O [KWKLFKKKGTGAVLTVLTTGLPALIS]
MIC [8]: 11.5 µM (≈ 32 µg/mL)
MIC [9]: 5.77 µM (≈ 16 µg/mL)
MIC [10]: 2.89 µM (≈ 8 µg/mL)
MIC (Escherichia coli O111:B4): 2.89 µM (≈ 8 µg/mL)
MIC [11]: 11.5 µM (≈ 32 µg/mL)
MIC [12]: 5.77 µM (≈ 16 µg/mL)
MIC (Bacillus subtilis): 5.77 µM (≈ 16 µg/mL)
MIC (Enterococcus faecalis): ≥ 46.2 µM

SMILES: CC[C@H](C)[C@H](NC(=O)[C@H](CC(C)C)NC(=O)[C@H](C)NC(=O)[C@@H]1CCCN1C(=O)[C@H](CC(C)C)NC(=O)[C@H](C)NC(=O)[C@@H](NC(=O)[C@@H](NC(=O)[C@@H](NC(=O)[C@@H](NC(=O)[C@H](CCCCN)NC(=O)[C@H](CCCCN)NC(=O)[C@H](CC(C)C)NC(=O)[C@@H](NC(=O)[C@H](CCCCN)NC(=O)[C@@H](NC(=O)[C@H](CC(C)C)NC(=O)[C@H](CC(N)=O)NC(=O)[C@H](CCCCN)NC(=O)[C@@H](NC(=O)[C@H](Cc1ccccc1)NC(=O)[C@H](CO)NC(=O)[C@H](CCCCN)NC(=O)[C@H](Cc1c[nH]c2ccccc12)NC(=O)[C@@H](N)CCCCN)[C@@H](C)CC)[C@@H](C)O)C(C)C)C(C)C)C(C)C)[C@@H](C)O)[C@@H](C)O)C(=O)N[C@@H](CO)C(=O)O [KWKSFIKNLTKVLKKVVTTALPALIS]
MIC [8]: 2.73 µM (≈ 8 µg/mL)
MIC [9]: 5.47 µM (≈ 16 µg/mL)
MIC [10]: 2.73 µM (≈ 8 µg/mL)
MIC (Escherichia coli O111:B4): 2.73 µM (≈ 8 µg/mL)
MIC [11]: 5.47 µM (≈ 16 µg/mL)
MIC [12]: 5.47 µM (≈ 16 µg/mL)
MIC (Bacillus subtilis): 2.73 µM (≈ 8 µg/mL)
MIC (Enterococcus faecalis): 21.9 µM (≈ 64 µg/mL)

SMILES: CC[C@H](C)[C@H](NC(=O)[C@H](CCCCN)NC(=O)[C@@H](N)CCCN=C(N)N)C(=O)N[C@@H](CCCCN)C(=O)N[C@@H](CCCN=C(N)N)C(=O)N[C@@H](Cc1ccc(O)cc1)C(=O)N[C@@H](CC(C)C)C(=O)N[C@@H](CCCN=C(N)N)C(=O)N[C@@H](CCCN=C(N)N)C(=O)N[C@@H](CCSC)C(=O)N[C@H](C(=O)N[C@H](C(=O)N[C@@H](Cc1c[nH]c2ccccc12)C(=O)O)[C@@H](C)CC)[C@@H](C)CC [RKIKRYLRRMIIW]
MIC [13]: 13.6 µM (≈ 25 µg/mL)
MIC [14]: 13.6 µM (≈ 25 µg/mL)
MIC [15]: ≥ 218 µM
MIC [16]: 13.6 µM (≈ 25 µg/mL)
MIC [17]: 27.3 µM (≈ 50 µg/mL)
